Laboratory results from patent US5861426A, “Nitro compounds of the formula A-Xi -NO2 and their compositions having anti-inflammatory, analgesic and anti-thrombotic activities” (Nicox S.A., priority 1994, dated 1999).

What was measured:
[1] = tested on: carrageenin-oedema; experiment: Anti-inflammatory activity, carrageenin-oedema method; assay type: in vivo; details: rats, oral 3 to 30 mg/Kg in carboxymethylcellulose; natural product = 1.0
Description: (§6) Study of the anti-inflammatory (I) and analgesic (II) properties (pharmacodynamics) and gastrointestinal tolerance (III) (toxicity) of the test compounds after oral administration of doses ranging from 3 to 30 mg/Kg in carboxymethylcellulose suspensions and constructing dose-responsecurves. […] Activities are expressed as the potency ratio compared to the natural product used as a unit standard.

[2] = tested on: Swiss mice; experiment: Analgesic activity (Hendershot et al.); assay type: in vivo; details: oral 3 to 30 mg/Kg in carboxymethylcellulose, natural product = 1.0
Description: as §6

[3] = tested on: gastropathy; experiment: Gastric tolerance, severity of induced gastropathy; details: rats, oral 3 to 30 mg/Kg in carboxymethylcellulose; natural product = 1.0
Description: Gastric tolerance was measured by oral administration to rats assessing the severity of the gastropathy induced in accordance with the criteria described by Wallace et al. (Am. J. Physiol. 259, G642, 1990).
Study of the anti-inflammatory (I) and analgesic (II) properties (pharmacodynamics) and gastrointestinal tolerance (III) (toxicity) of the test compounds after oral administration of doses ranging from 3 to 30 mg/Kg in carboxymethylcellulose suspensions and constructing dose-responsecurves.
Activities are expressed as the potency ratio compared to the natural product used as a unit standard. The nitroderivative is that of the shown examples, the natural reference compound is that shown as a reference.

[4] = target: T1, COX-1 (Bos taurus, UniProt O62664); experiment: COX-1 inhibition in isolated cells; assay type: cell-based, bovine; details: endothelial cells of bovine aorta, read-out: COX-1 response, % of the controls with response variability; for remaining activity at 1000 µg/mL: 1.0 mg/ml
T1 construct: Endothelial cells of bovine aorta were used as a source of COX-1; endogenous in cells; host or cells: bovine aortic endothelial cells
T1 sequence (O62664 25-600): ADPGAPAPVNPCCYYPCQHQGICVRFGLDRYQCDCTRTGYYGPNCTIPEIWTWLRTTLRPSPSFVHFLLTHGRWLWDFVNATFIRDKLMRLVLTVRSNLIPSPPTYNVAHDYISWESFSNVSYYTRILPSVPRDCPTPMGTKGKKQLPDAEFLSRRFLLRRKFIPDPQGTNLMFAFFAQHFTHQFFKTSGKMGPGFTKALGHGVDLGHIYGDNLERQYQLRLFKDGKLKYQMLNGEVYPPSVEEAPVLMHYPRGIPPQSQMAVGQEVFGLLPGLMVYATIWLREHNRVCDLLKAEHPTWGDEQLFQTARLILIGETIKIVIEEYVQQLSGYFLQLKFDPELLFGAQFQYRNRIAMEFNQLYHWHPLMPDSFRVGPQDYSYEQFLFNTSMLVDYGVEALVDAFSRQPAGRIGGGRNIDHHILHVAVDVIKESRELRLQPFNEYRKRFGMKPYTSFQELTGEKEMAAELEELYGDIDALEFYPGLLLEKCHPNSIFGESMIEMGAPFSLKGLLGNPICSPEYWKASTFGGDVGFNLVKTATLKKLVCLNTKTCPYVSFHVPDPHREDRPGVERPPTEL
Description: (§1) The activity inhibiting cyclo-oxygenase was determined in isolated cells. Endothelial cells of bovine aorta were used as a source of COX-1 and macrophage line J774.2 as a source of COX-2. The same conditions described by Mitchell et al. (Proc. Nat. Acad. Sci. 90, 11693, 1993) for growth and the viability test were used.
(§2) In brief, the cells were incubated for 30 minutes with scalar concentrations of the test product and the substrate (arachidonic acid) was then added and incubated for another 15 minutes. Enzyme activity was determined radioimmunologically by measuring the formation of 6-keto-PGF 1 alpha. In the case of cell lines J.774.2, the cells were incubated for 12 hours with endotoxin to promote COX-2 formation.
(§3) Study of the anti-cyclooxygenase (COX-1/COX-2) properties in isolated cells.
(§4) Response expressed as a % of the controls with relative response variability.

[5] = target: T2, COX-2 (Mus musculus, UniProt Q05769); experiment: COX-2 inhibition in isolated cells; assay type: cell-based; details: macrophage line J774.2 with endotoxin, read-out: COX-2 response, % of the controls with response variability; for remaining activity at 100 µg/mL: 0.1 mg/ml; for remaining activity at 1000 µg/mL: 1.0 mg/ml
T2 construct: endogenous in cells; host or cells: J774.2 macrophages, 12 h with endotoxin
T2 sequence (Q05769 18-604): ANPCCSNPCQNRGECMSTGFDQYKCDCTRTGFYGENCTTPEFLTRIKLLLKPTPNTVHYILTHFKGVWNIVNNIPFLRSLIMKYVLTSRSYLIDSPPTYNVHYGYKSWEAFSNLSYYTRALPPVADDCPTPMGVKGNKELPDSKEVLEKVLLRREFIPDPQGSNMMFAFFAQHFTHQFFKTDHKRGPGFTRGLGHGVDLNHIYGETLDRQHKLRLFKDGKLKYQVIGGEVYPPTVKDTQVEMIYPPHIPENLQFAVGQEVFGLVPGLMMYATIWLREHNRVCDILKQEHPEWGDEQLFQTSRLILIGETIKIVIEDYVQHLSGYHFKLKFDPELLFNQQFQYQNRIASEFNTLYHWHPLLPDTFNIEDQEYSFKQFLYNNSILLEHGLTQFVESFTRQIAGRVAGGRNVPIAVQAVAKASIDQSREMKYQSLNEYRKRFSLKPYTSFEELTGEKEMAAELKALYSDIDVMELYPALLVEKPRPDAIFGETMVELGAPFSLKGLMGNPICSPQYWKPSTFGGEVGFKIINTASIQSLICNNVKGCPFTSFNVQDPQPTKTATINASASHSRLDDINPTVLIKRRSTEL
Description: as §1, §2, §3, §4

[6] = tested on: human platelets stimulated by thrombin; experiment: Platelet anti-aggregating activity in vitro; assay type: cell-based; details: 10^-5 to 10^-7 molar range, natural product = 1.0
Text: (§5) Example of the anti-cyclooxygenase (I), platelet anti-aggregating (II) and vasodilative (III) properties of the test compounds tested in vitro at concentrations in the molar range from 10^-5 to 10^-7 of the product in water/alcohol with the addition of small amounts of DMSO (dimethylsulphoxide). The activities are expressed as the potency ratio versus the natural product used as a unit standard, as stated in Table

[7] = tested on: isolated rat aorta; experiment: Vasodilative activity, inhibition of contraction induced by epinephrine; details: in vitro, 10^-5 to 10^-7 molar range
Text: as §5

[8] = tested on: cyclo-oxygenase; experiment: Anti-cyclooxygenase activity; assay type: cell-based; details: for anti-cyclooxygenase (I), potency ratio versus natural product: in vitro, 10^-5 to 10^-7 molar range, natural product = 1.0
Description: as §1, §2, §5

[9] = tested on: nitrosynthetase (NOS); experiment: Nitrosynthetase (NOS) activity induced by LPS in rats; assay type: in vivo, rat; details: oral, LPS only = 100
Description: The nitrosynthetase inhibition activity induced by lipopolysaccharide (LPS) was determined in rat neutrophils and stomach after administration of one of the test compounds and compared with that obtained after treatment of the suspension vehicle only.
In brief, Wistar rats fasting for 24 hours before treatment were orally administered the test product (10 mg/Kg) and intravenously (caudal vein) administered LPS (5 mg/Kg).
Four hours later the animals were sacrificed and the blood--for neutrophils isolation--and the stomach taken.
Enzyme activity was determined in accordance with the method described by Assreuy et al. (Br. J. Pharmacol. 108, 833, 1993).
Study of the inhibitory properties of the nitrosynthetase (NOS) activity induced by liposaccharide (LPS) in rats using oral doses ranging from 5 to 20 mg/Kg suspended in a carboxymethylcellulose base.

| SMILES | anti-inflammatory properties (I), potency ratio versus natural reference product [1] | analgesic properties (II), potency ratio versus natural reference product [2] | gastrointestinal tolerance (III) (toxicity), potency ratio versus natural reference product [3] | vasodilative (III), % of inhibitory action of the vasospasm induced by epinephrine [7] | further results |
| --- | --- | --- | --- | --- | --- |
| CC(C(=O)OCCOCCO[N+](=O)[O-])c1ccc(-c2ccccc2)c(F)c1 (stereo not shown) [Example 1e] | 1.0 | 1.0 | 0.1 | – | remaining activity at 1000 µg/mL [4]: 22 ± 3%; remaining activity at 100 µg/mL [5]: 47 ± 4%; remaining activity at 1000 µg/mL [5]: 18 ± 2% |
| O=C(c1ccccc1)c1ccc2n1CCC2C(=O)O (stereo not shown) [KETOROLAC, reference compound] | 1.0 | 1.0 | 1.0 | – | – |
| CC(C)Cc1ccc(C(C)C(=O)O)cc1 (stereo not shown) [IBUPROFEN, reference compound] | 1.0 | 1.0 | 1.0 | – | – |
| CC(=O)Oc1ccccc1C(=O)OCCOCCO[N+](=O)[O-] [Example 1a, 2-acetoxy-benzoate of 2-[2-(nitroxy)ethoxy]ethyl] | 1.2 | 1.1 | 0.2 | 60% | platelet anti-aggregating (II), potency ratio versus natural product [6]: 3.0; anti-cyclooxygenase (I), potency ratio versus natural product [8]: 1.5 |
| CC(C(=O)OCCOCCO[N+](=O)[O-])c1ccc(C(=O)c2ccccc2)s1 (stereo not shown) [Example 1g] | 0.9 | 1.3 | 0.1 | – | – |
| CC(=O)Oc1ccccc1C(=O)O [ASPIRIN, acetylsalicylic acid, reference compound] | – | – | – | inactive | – |
| COc1ccc2cc(C(C)C(=O)OCCOCCO[N+](=O)[O-])ccc2c1 (stereo not shown) [Example 1h] | 1.3 | 1.3 | 0.1 | – | – |
| O=C(c1ccccc1)c1ccc2n1CCC2C(=O)OCCOCCO[N+](=O)[O-] (stereo not shown) [Example 1f] | 1.0 | 1.0 | 0.1 | – | – |
| CC(C(=O)O)c1ccc(-c2ccccc2)c(F)c1 (stereo not shown) [FLURBIPROFEN, reference compound] | 1.0 | 1.0 | – | – | – |
| O=C(Cc1ccccc1Nc1c(Cl)cccc1Cl)OCCCCO[N+](=O)[O-] [DICLOFENAC NITROXYBUTYLESTER, reference compound] | – | – | – | – | direct inhibition of cyclo-oxygenase COX-1 and COX-2 ([8]; Table 4 data): capable of directly inhibiting cyclo-oxygenase COX-1 and COX-2; remaining activity at 100 µg/mL ([4]; 0.1 mg/ml): 45 ± 22%; remaining activity at 1000 µg/mL [4]: 24 ± 10%; remaining activity at 100 µg/mL [5]: 68 ± 11%; remaining activity at 1000 µg/mL [5]: 41 ± 11%; NOS, neutrophils; inhibition relative to the group treated with LPS only [9]: 49; NOS, stomach; inhibition relative to the group treated with LPS only [9]: 37 |
| CC(C(=O)OCCCCO[N+](=O)[O-])c1cccc(C(=O)c2ccccc2)c1 (stereo not shown) [NITROXYBUTYLKETOPROFEN, reference compound] | – | – | – | – | NOS, neutrophils; inhibition relative to the group treated with LPS only [9]: 55; NOS, stomach; inhibition relative to the group treated with LPS only [9]: 35 |
| CC(C(=O)Oc1cccc(CO[N+](=O)[O-])c1)c1cccc(C(=O)c2ccccc2)c1 (stereo not shown) [Example 1c, 2-(3-benzoyl)phenylpropionate of 3-(nitroxymethyl)phenyl] | 1.0 | 1.2 | 0.1 | 50% | platelet anti-aggregating (II), potency ratio versus natural product [6]: 1.8; anti-cyclooxygenase (I), potency ratio versus natural product [8]: 1.2; NOS, neutrophils; inhibition relative to the group treated with LPS only [9]: 30; NOS, stomach; inhibition relative to the group treated with LPS only [9]: 40 |
| O=C(O)Cc1ccccc1Nc1c(Cl)cccc1Cl [DICLOFENAC, reference compound] | – | – | – | inactive | – |
| CC(C)Cc1ccc(C(C)C(=O)OCCOCCO[N+](=O)[O-])cc1 (stereo not shown) [Example 1d] | 1.0 | 1.1 | 0.1 | – | – |
| CC(C(=O)O)c1cccc(C(=O)c2ccccc2)c1 (stereo not shown) [KETOPROFEN, 2-(3-benzoyl)phenyl propionic acid, reference compound] | – | – | – | inactive | – |
| CC(C(=O)O)c1ccc(C(=O)c2ccccc2)s1 (stereo not shown) [TIAPROFENIC ACID, reference compound] | 1.0 | 1.0 | 1.0 | – | – |
